The values that follow are results of earlier work, collected in patent publication US20130303628A1, “CURCUMINOID SOLID DISPERSION FORMULATION” (ABBOTT LABORATORIES, priority 2010, published 2013).

The conditions of the data set: acidic and neutral pH.

With `COc1cc(C=CC(=O)CC(=O)C=Cc2ccc(O)c(OC)c2)ccc1O` [Curcumin, 1,7-Bis-(4-hydroxy-3-methoxyphenyl)-hepta-1,6-diene-3,5-dione], the solubility in water entry is given as “practically insoluble”.
